From US10085955B2, “Methods and compositions for treatment of demyelinating diseases” (Pathologica LLC, priority 2013, dated 2018)
Entries after “also recorded” stand apart in the source; their conditions may differ. Marks after values point to notes of the source that are not given here.

Key:
[1] = tested on: MOG-induced experimental autoimmune encephalomyelitis (EAE); assay: Second MOG EAE protocol, clinical readouts; format: in vivo, C57BL/6 mice; settings: second study; MGBG 30 mpk BID, fingolimod 1 mpk QD
From the text: An experimental murine model of multiple sclerosis employing a myelin oligodendrocyte glycoprotein (MOG) peptide to induce experimental autoimmune encephalomyelitis (EAE) was employed to determine the efficacy of MGBG in preventing and treating that disease. Because of its many similarities to MS, EAE is commonly used to study pathogenesis of autoimmunity, CNS inflammation, demyelination, cell trafficking, and tolerance induction. EAE is characterized by paralysis (in some models the paralysis is remitting-relapsing), CNS inflammation and demyelination. EAE is mediated primarily by dendritic cells, myelin-specific T cells (e.g. Th1 and Th17), and M1 macrophages. B cells may also play a role in some models of EAE. Body weight also tracks disease progression. EAE is induced in C57BL/6 mice by immunization with MOG35-55 or MOG1-125 in CFA emulsion followed by administration of pertussis toxin (PTX) in PBS. The emulsion provides antigen which initiates expansion and differentiation of MOG-specific autoimmune T cells. PTX enhances EAE development by providing additional adjuvant and facilitating entrance of autoimmune T cells into the CNS. […]
Clinically, EAE progression is scored on a scale of 0 to 5, wherein each score represents the following clinical observations: […]

CNS-infiltrating cells = assay: Fourth MOG EAE protocol, flow cytometric analysis of CNS-infiltrating cells at onset and peak; format: in vivo, C57BL/6 mice
Description: A fourth EAE experiment was run similarly to the above, but was designed to examine the effect of MGBG on cell populations during onset and peak disease. In this protocol, there were 3 experimental groups with 20 mice/group and 1 mock-immunized group with 8 mice. Fingolimod was dosed at 1 mpk QD, MGBG at 30 mpk BID, and the pertussis toxin was administered at 165 ng/dose for both injections. Flow cytometric analysis was performed on CNS-infiltrating cells from 16 mice from each of the vehicle-, fingolimod- and MGBG-treated groups, as well as from all mice in the mock-immunized group. Half of the analyzed mice from each group were collected at the time of EAE onset in the vehicle group and half were collected at the time of EAE peak in the vehicle group. Mouse termination was over eight separate days, because individual mouse in the vehicle group reached EAE onset and EAE peak on different days. Eight (8) of the mice in the vehicle group were sacrificed at each time-point. For each of these mice, a matching mouse from each of Groups 2 and 3 was sacrificed on the same day. For each two (2) of these vehicle group mice, a matching mouse from Group 4 was sacrificed. When selecting matching mice from other groups for termination, the mouse with the highest EAE score was chosen. If no mouse in the group had signs of EAE, a mouse was chosen at random.

CC(/C=N/NC(=N)N)=N\NC(=N)N [MGBG, 1,1′ [methylethanediylidene]dinitrilodiguanidine]
EAE disease development / severity [1]: suppressed EAE comparably to 1 mpk fingolimod; also recorded: substantially reduced disease compared to that of the vehicle group; also recorded: efficacious at postponing disease onset and reducing EAE severity
CD4+ IFNy+ (CNS-infiltrating cells; Onset): 3.19 +/− # cells (10^3)
CD4+ IFNγ+ (CNS-infiltrating cells; Onset): 9.57 % cells
CD4+ IL-17A+ IFNy+ (CNS-infiltrating cells; Onset): 1.56 +/− # cells (10^3)
CD4+ IL-17A+ IFNγ+ (CNS-infiltrating cells; Onset): 4.14 % cells
CD4+ IFNy+ (CNS-infiltrating cells; Peak): 4.57 +/− # cells (10^3)
CD4+ IFNγ+ (CNS-infiltrating cells; Peak): 9.37 % cells
CD4+ IL-17A+ IFNy+ (CNS-infiltrating cells; Peak): 3.01 +/− # cells (10^3)
CD4+ IL-17A+ IFNγ+ (CNS-infiltrating cells; Peak): 5.45 % cells
CNS infiltration by proinflammatory cells (CNS-infiltrating cells; fourth study, MGBG 30 mpk BID): reduced
proportion and number of infiltrating dendritic cells (CNS-infiltrating cells; fourth study, MGBG 30 mpk BID vs fingolimod 1 mpk QD): reduced in MGBG-treated mice more than in fingolimod-treated mice
CD11c+ of CD4− CD45.2+ high cells In Peak of Disease in Animals Without EAE Disease (CNS-infiltrating cells; subset of animals which did not develop disease when vehicle-treated animals were at peak): 2.93 +/− 0.37
